Laboratory results: patent publication EP2100894A1, “Pyridopyrimidines used as Plk1 (polo-like kinase) inhibitors” (4SC AG, priority 2008, dated 2009)
pIC50: −log10 of the molar value.

Target: T1, PIk1 (Homo sapiens, UniProt P53350)
T1 construct: His tag (histidine tag) (N); made in house; host or cells: SF9 insect cells
Assay: PIk1 kinase activity inhibition assay (33P incorporation into alpha casein, flash plates)
Format: biochemical
Settings: recombinant N-terminally histidine-tagged PIk1, alpha casein as substrate, 100 nM Li-ATP, 80 minutes at 30°C
Method: The inhibition of PIk1 kinase activity can be measured using recombinant PIk1 protein expressed as an N-terminally histidine-tagged protein in SF9 insect cells and alpha casein as substrate. The PIk1 assay is run in 96 well plates by incubating 50 to 100 ng per well recombinant PIk1, 500 ng per well alpha casein (Sigma, # C-6780) as substrate, 10 µl of compound of invention (test compounds were dissolved as 20 mM solutions in dimethylsulfoxide (DMSO) and subsequently diluted), and 100 nM Li-ATP (including ^33P-ATP) in 100 µl of reaction buffer ([…], pH 7.5; 3 mM MgCl2; 3 mM MnCl2; 3 µM Na-Orthovanadat; 1 mM DTT; 1 µg/ml PEG 8000) for 80 minutes at 30°C. The reactions are terminated by adding 100 µl stopping buffer (2% H3PO4 for 5 minutes) and are washed 3 times with washing solution (0,9% NaCl). Determining ^33P incorporated into the protein substrate alpha casein, the detection is based on the adhesion of the phosphorylated protein to the surface of scintillator-coated flash plates (Perkin Elmer, USA; # SMP-200). Phosphorylation of alpha casein is measured by counting the radioactivity bound to the plate for 60 sec. using a plate reader (Perkin Elmer, USA; Wallac Microbeta). By this method, the IC50 value of the PIk1 inhibition is determined as described above. […]

T1 sequence (P53350 whole entry): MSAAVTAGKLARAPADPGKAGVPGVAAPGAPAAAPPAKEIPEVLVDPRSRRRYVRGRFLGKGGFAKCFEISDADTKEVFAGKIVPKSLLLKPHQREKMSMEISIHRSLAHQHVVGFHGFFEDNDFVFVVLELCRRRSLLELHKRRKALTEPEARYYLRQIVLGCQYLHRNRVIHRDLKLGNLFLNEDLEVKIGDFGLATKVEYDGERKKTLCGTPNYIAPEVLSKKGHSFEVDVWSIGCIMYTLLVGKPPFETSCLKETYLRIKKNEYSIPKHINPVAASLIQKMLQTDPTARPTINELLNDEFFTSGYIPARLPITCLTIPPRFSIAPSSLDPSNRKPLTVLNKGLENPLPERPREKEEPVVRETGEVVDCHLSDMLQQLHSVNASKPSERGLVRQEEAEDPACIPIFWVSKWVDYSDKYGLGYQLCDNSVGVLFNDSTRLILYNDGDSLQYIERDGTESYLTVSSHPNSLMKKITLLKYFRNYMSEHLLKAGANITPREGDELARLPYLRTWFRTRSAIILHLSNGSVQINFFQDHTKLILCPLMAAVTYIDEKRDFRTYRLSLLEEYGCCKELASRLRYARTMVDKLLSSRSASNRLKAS

**Q.** How did the pIC50 turn out when `COc1cc(C(=O)NCCC2CCCN2C)ccc1Nc1ncc2c(n1)c(-c1ccsc1)c(OCC1CC1)c(=O)n2C` (stereo not drawn) [Example 47, 4-{[7-(cyclopropylmethoxy)-5-methyl-6-oxo-8-(3-thienyl)-5,6-dihydropyrido[3,2-d]pyrimidin-2-yl]amino}-3-methoxy-N-[2-(1-methylpyrrolidin-2-yl)ethyl]benzamide] was run?
**A.** > 8.00

**Q.** With `COc1cc(C(=O)NCC2CCN(C)CC2)ccc1Nc1ncc2c(n1)c(-c1ccsc1)c(OCC1CC1)c(=O)n2C` [Example 48, 4-{[7-(cyclopropylmethoxy)-5-methyl-6-oxo-8-(3-thienyl)-5,6-dihydro-pyrido[3,2-d]pyrimidin-2-yl]amino}-3-methoxy-N-[(1-methylpiperidin-4-yl)methyl] benzamide] as the compound, how does the pIC50 read?
**A.** > 8.00

**Q.** With `COc1cc(C(=O)NC2CCN(C(C)C)CC2)ccc1Nc1ncc2c(n1)c(-c1ccsc1)c(OCC1CC1)c(=O)n2C` [Example 49, 4-{[7-(cyclopropylmethoxy)-5-methyl-6-oxo-8-(3-thienyl)-5,6-dihydropyrido[3,2-d]pyrimidin-2-yl]amino}-N-(1-isopropylpiperidin-4-yl)-3-methoxybenzamide] as the compound, how does the pIC50 read?
**A.** > 8.00

**Q.** With `CCOc1c(-c2nccs2)c2nc(Nc3ccc(C(=O)NC4CCN(C)CC4)cc3OC)ncc2n(C)c1=O` [Example 50, 4-{[7-ethoxy-5-methyl-6-oxo-8-(1,3-thiazol-2-yl)-5,6-dihydropyrido[3,2-d]pyrimidin-2-yl]amino}-3-methoxy-N-(1-methylpiperidin-4-yl)benzamide] as the compound, how does the pIC50 read?
**A.** > 7.00

**Q.** With `COc1cc(C(=O)NC2CCN(C)CC2)ccc1Nc1ncc2c(n1)c(-c1ccccc1)c(OCC1CC1)c(=O)n2C` [Example 51, 4-{[7-(cyclopropylmethoxy)-5-methyl-6-oxo-8-phenyl-5,6-dihydro-pyrido[3,2-d]pyrimidin-2-yl]amino}-3-methoxy-N-(1-methylpiperidin-4-yl)benzamide] as the compound, how does the pIC50 read?
**A.** > 8.00

**Q.** How did the pIC50 turn out when `COc1cc(C(=O)NC2CCN(C)CC2)ccc1Nc1ncc2c(n1)c(-c1ccc(F)cc1)c(OCC1CC1)c(=O)n2C` [Example 52, 4-{[7-(cyclopropylmethoxy)-8-(4-fluorophenyl)-5-methyl-6-oxo-5,6-dihydropyrido[3,2-d]pyrimidin-2-yl]amino}-3-methoxy-N-(1-methylpiperidin-4-yl)benzamide] was run?
**A.** > 8.00

**Q.** How did the pIC50 turn out when `COc1cc(C(=O)NC2CCN(C)CC2)ccc1Nc1ncc2c(n1)c(-c1cccs1)c(OCC1CC1)c(=O)n2C` [Example 53, 4-{[7-(cyclopropylmethoxy)-5-methyl-6-oxo-8-(2-thienyl)-5,6-dihydro-pyrido[3,2-d]pyrimidin-2-yl]amino}-3-methoxy-N-(1-methylpiperidin-4-yl)benzamide] was run?
**A.** > 8.00

**Q.** How did the pIC50 turn out when `COc1cc(C(=O)NC2CCN(C)CC2)ccc1Nc1ncc2c(n1)c(-c1cccc(F)c1)c(OCC1CC1)c(=O)n2C` [Example 54, 4-{[7-(cyclopropylmethoxy)-8-(3-fluorophenyl)-5-methyl-6-oxo-5,6-dihydropyrido[3,2-d]pyrimidin-2-yl]amino}-3-methoxy-N-(1-methylpiperidin-4-yl)benzamide] was run?
**A.** > 8.00

**Q.** How did the pIC50 turn out when `COc1cc(C(=O)NC2CCN(C)CC2)ccc1Nc1ncc2c(n1)c(-c1cc(C)cs1)c(OCC1CC1)c(=O)n2C` [Example 55, 4-{[7-(cyclopropylmethoxy)-5-methyl-8-(4-methyl-2-thienyl)-6-oxo-5,6-dihydropyrido[3,2-d]pyrimidin-2-yl]amino}-3-methoxy-N-(1-methylpiperidin-4-yl)benzamide] was run?
**A.** > 8.00

**Q.** With `C/C=C/c1c(OC2CC2)c(=O)n(C)c2cnc(Nc3ccc(C(=O)NC4CCN(C)CC4)cc3OC)nc12` [Example 56, 4-({7-(cyclopropyloxy)-5-methyl-6-oxo-8-[(1E)-prop-1-en-1-yl]-5,6-dihydropyrido[3,2-d]pyrimidin-2-yl}amino)-3-methoxy-N-(1-methylpiperidin-4-yl)benzamide] as the compound, how does the pIC50 read?
**A.** > 8.00

**Q.** How did the pIC50 turn out when `COc1cc(C(=O)NC2CCN(C)CC2)ccc1Nc1ncc2c(n1)c(C1=CCCC1)c(OCC1CC1)c(=O)n2C` [Example 57, 4-{[8-cyclopent-1-en-1-yl-7-(cyclopropylmethoxy)-5-methyl-6-oxo-5,6-dihydropyrido[3,2-d]pyrimidin-2-yl]amino}-3-methoxy-N-(1-methylpiperidin-4-yl)benzamide] was run?
**A.** > 8.00

**Q.** How did the pIC50 turn out when `COc1cc(C(=O)NC2CCN(C)CC2)ccc1Nc1ncc2c(n1)c(-c1ccsc1)c(OC1CC1)c(=O)n2C` [Example 58, 4-{[7-(cyclopropyloxy)-5-methyl-6-oxo-8-(3-thienyl)-5,6-dihydropyri-do[3,2-d]pyrimidin-2-yl]amino}-3-methoxy-N-(1-methylpiperidin-4-yl)benzamide] was run?
**A.** > 8.00

**Q.** How did the pIC50 turn out when `COc1cc(C(=O)NC2CCN(C)CC2)ccc1Nc1ncc2c(n1)c(-c1ccccc1F)c(OCC1CC1)c(=O)n2C` [Example 59, 4-{[7-(cyclopropylmethoxy)-8-(2-fluorophenyl)-5-methyl-6-oxo-5,6-dihydropyrido[3,2-d]pyrimidin-2-yl]amino}-3-methoxy-N-(1-methylpiperidin-4-yl)benzamide] was run?
**A.** > 8.00

**Q.** `COc1cc(C(=O)NC2CCN(C)CC2)ccc1Nc1ncc2c(n1)c(-c1csc(C)c1)c(OCC1CC1)c(=O)n2C` [Example 60, 4-{[7-(cyclopropylmethoxy)-5-methyl-8-(5-methyl-3-thienyl)-6-oxo-5,6-dihydropyrido[3,2-d]pyrimidin-2-yl]amino}-3-methoxy-N-(1-methylpiperidin-4-yl)benzamide] was tested. Which pIC50 did it give?
**A.** > 8.00

**Q.** `COc1cc(C(=O)NC2CCN(C)CC2)ccc1Nc1ncc2c(n1)c(-c1cccc(C)c1)c(OCC1CC1)c(=O)n2C` [Example 61, 4-{[7-(cyclopropylmethoxy)-5-methyl-8-(3-methylphenyl)-6-oxo-5,6-dihydropyrido[3,2-d]pyrimidin-2-yl]amino}-3-methoxy-N-(1-methylpiperidin-4-yl)benzamide] was tested. Which pIC50 did it give?
**A.** > 8.00

**Q.** `COc1cc(C(=O)NC2CCN(C)CC2)ccc1Nc1ncc2c(n1)c(-c1ccc(C)cc1)c(OCC1CC1)c(=O)n2C` [Example 62, 4-{[7-(cyclopropylmethoxy)-5-methyl-8-(4-methylphenyl)-6-oxo-5,6-dihydropyrido[3,2-d]pyrimidin-2-yl]amino}-3-methoxy-N-(1-methylpiperidin-4-yl)benzamide] was tested. Which pIC50 did it give?
**A.** > 8.00

**Q.** With `COc1cc(C(=O)NC2CCN(C)CC2)ccc1Nc1ncc2c(n1)c(-c1cscn1)c(OCC1CC1)c(=O)n2C` [Example 63, 4-{[7-(cyclopropylmethoxy)-5-methyl-6-oxo-8-(1,3-thiazol-4-yl)-5,6-dihydropyrido[3,2-d]pyrimidin-2-yl]amino}-3-methoxy-N-(1-methylpiperidin-4-yl)benzamide] as the compound, how does the pIC50 read?
**A.** > 8.00

**Q.** How did the pIC50 turn out when `C/C=C/c1c(OCC2CC2)c(=O)n(C)c2cnc(Nc3ccc(C(=O)NC4CCN(C)CC4)cc3C)nc12` [Example 64, 4-({7-(cyclopropylmethoxy)-5-methyl-6-oxo-8-[(1E)-prop-1-en-1-yl]-5,6-dihydropyrido[3,2-d]pyrimidin-2-yl}amino)-3-methyl-N-(1-methylpiperidin-4-yl)benzamide] was run?
**A.** > 8.00

**Q.** With `C/C=C/c1c(OCC2CC2)c(=O)n(C)c2cnc(Nc3ccc(C(=O)NC4CCN(C)CC4)cc3CC)nc12` [Example 65, 4-({7-(cyclopropylmethoxy)-5-methyl-6-oxo-8-[(1E)-prop-1-en-1-yl]-5,6-dihydropyrido[3,2-d]pyrimidin-2-yl}amino)-3-ethyl-N-(1-methylpiperidin-4-yl)benzamide] as the compound, how does the pIC50 read?
**A.** > 8.00

**Q.** How did the pIC50 turn out when `Cc1cc(C(=O)NC2CCN(C)CC2)ccc1Nc1ncc2c(n1)c(-c1ccsc1)c(OCC1CC1)c(=O)n2C` [Example 66, 4-{[7-(cyclopropylmethoxy)-5-methyl-6-oxo-8-(3-thienyl)-5,6-dihydropyrido[3,2-d]pyrimidin-2-yl]amino}-3-methyl-N-(1-methylpiperidin-4-yl)benzamide] was run?
**A.** > 8.00

**Q.** `C/C=C/c1c(OCC2CC2)c(=O)n(C)c2cnc(Nc3ccc(C(=O)NC4CCN(C)CC4)cc3Cl)nc12` [Example 67, 3-chloro-4-({7-(cyclopropylmethoxy)-5-methyl-6-oxo-8-[(1E)-prop-1-en-1-yl]-5,6-dihydropyrido[3,2-d]pyrimidin-2-yl}amino)-N-(1-methylpiperidin-4-yl)benzamide] was tested. Which pIC50 did it give?
**A.** > 8.00

**Q.** `COc1cc(C(=O)NC2CCN(C)CC2)ccc1Nc1ncc2c(n1)c(-c1ccncc1)c(OCC1CC1)c(=O)n2C` [Example 68, 4-{[7-(cyclopropylmethoxy)-5-methyl-6-oxo-8-pyridin-4-yl-5,6-dihydro-pyrido[3,2-d]pyrimidin-2-yl]amino}-3-methoxy-N-(1-methylpiperidin-4-yl)benzamide] was tested. Which pIC50 did it give?
**A.** > 8.00

**Q.** How did the pIC50 turn out when `COc1cc(C(=O)NC2CCN(C)CC2)ccc1Nc1ncc2c(n1)c(-c1cccnc1)c(OCC1CC1)c(=O)n2C` [Example 69, 4-{[7-(cyclopropylmethoxy)-5-methyl-6-oxo-8-pyridin-3-yl-5,6-dihydro-pyrido[3,2-d]pyrimidin-2-yl]amino}-3-methoxy-N-(1-methylpiperidin-4-yl)benzamide] was run?
**A.** > 8.00

**Q.** `CN1CCC(NC(=O)c2ccc(Nc3ncc4c(n3)c(-c3ccsc3)c(OCC3CC3)c(=O)n4C)c(Cl)c2)CC1` [Example 70, 3-chloro-4-{[7-(cyclopropylmethoxy)-5-methyl-6-oxo-8-(3-thienyl)-5,6-dihydropyrido[3,2-d]pyrimidin-2-yl]amino}-N-(1-methylpiperidin-4-yl)benzamide] was tested. Which pIC50 did it give?
**A.** > 8.00
